Reference: the supplement of paper PMC10307832

Experiments:
Assay in all cases: relative viability (nuclei count vs DMSO), 5 days (fraction); higher = more cells survive
ABC-1 = test system: ABC-1
Summary of the method: (§1)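 After 5 days of treatment, lung cancer cells in 1536-well plates were fixed and stained in a single step (final 0.05% Triton X-100, 1% formaldehyde, 1 ug/ml Hoechst) and their nuclei counted on 4× images. Treatment had been applied by pin tool the day after seeding as one drug alone or as a fixed anchor-drug dose with five library-drug doses (not always all listed) in √10 steps. Relative viability is the nuclei count of treated wells divided by that of vehicle wells, and values are medians of duplicate plates.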

COR-L23 = test system: COR-L23
Summary of the method: as §1

ChaGo-K-1 = test system: ChaGo-K-1
Summary of the method: as §1

EMC-BAC-2 = test system: EMC-BAC-2
Summary of the method: as §1

HARA = test system: HARA
Summary of the method: as §1

HCC-15 = test system: HCC-15
Summary of the method: as §1

HCC-366 = test system: HCC-366
Summary of the method: as §1

HCC-78 = test system: HCC-78
Summary of the method: as §1

HOP-62 = test system: HOP-62
Summary of the method: as §1

LC-2-ad = test system: LC-2-ad
Summary of the method: as §1

NCI-H1944 = test system: NCI-H1944
Summary of the method: as §1

NCI-H1993 = test system: NCI-H1993
Summary of the method: as §1

NCI-H2023 = test system: NCI-H2023
Summary of the method: as §1

NCI-H2126 = test system: NCI-H2126
Summary of the method: as §1

NCI-H2228 = test system: NCI-H2228
Summary of the method: as §1

NCI-H23 = test system: NCI-H23
Summary of the method: as §1

NCI-H2405 = test system: NCI-H2405
Summary of the method: as §1

NCI-H358 = test system: NCI-H358
Summary of the method: as §1

NCI-H838 = test system: NCI-H838
Summary of the method: as §1

SK-LU-1 = test system: SK-LU-1
Summary of the method: as §1

## CCN(CC)CCCCNc1ncc2cc(-c3cc(OC)cc(OC)c3)c(NC(=O)NC(C)(C)C)nc2n1 + C[C@@H](Oc1cc(-c2cnn(C3CCNCC3)c2)cnc1N)c1c(Cl)ccc(F)c1Cl [Crizotinib] (partner 1 µM)
ABC-1; first compound 0.01 µM
  relative viability: 1.53
ABC-1; first compound 0.03162 µM
  relative viability: 1.34
ABC-1; first compound 0.1 µM
  relative viability: 1.18
ABC-1; first compound 0.3162 µM
  relative viability: 1.09
ABC-1; first compound 1 µM
  relative viability: 0.905
COR-L23; first compound 0.01 µM
  relative viability: 0.697
COR-L23; first compound 0.03162 µM
  relative viability: 0.656
COR-L23; first compound 0.1 µM
  relative viability: 0.824
COR-L23; first compound 0.3162 µM
  relative viability: 0.584
COR-L23; first compound 1 µM
  relative viability: 0.759
ChaGo-K-1; first compound 0.01 µM
  relative viability: 1.24
ChaGo-K-1; first compound 0.03162 µM
  relative viability: 1.08
ChaGo-K-1; first compound 0.1 µM
  relative viability: 1.09
ChaGo-K-1; first compound 0.3162 µM
  relative viability: 1.32
ChaGo-K-1; first compound 1 µM
  relative viability: 1.06
EMC-BAC-2; first compound 0.01 µM
  relative viability: 0.851
EMC-BAC-2; first compound 0.03162 µM
  relative viability: 0.761
EMC-BAC-2; first compound 0.1 µM
  relative viability: 0.85
EMC-BAC-2; first compound 0.3162 µM
  relative viability: 0.839
EMC-BAC-2; first compound 1 µM
  relative viability: 0.735
HARA; first compound 0.01 µM
  relative viability: 1.19
HARA; first compound 0.03162 µM
  relative viability: 1.03
HARA; first compound 0.1 µM
  relative viability: 1.26
HARA; first compound 0.3162 µM
  relative viability: 1.17
HARA; first compound 1 µM
  relative viability: 0.816
HCC-15; first compound 0.01 µM
  relative viability: 0.919
HCC-15; first compound 0.03162 µM
  relative viability: 0.853
HCC-15; first compound 0.1 µM
  relative viability: 0.871
HCC-15; first compound 0.3162 µM
  relative viability: 1.25
HCC-15; first compound 1 µM
  relative viability: 0.699
HCC-366; first compound 0.01 µM
  relative viability: 0.632
HCC-366; first compound 0.03162 µM
  relative viability: 0.924
HCC-366; first compound 0.1 µM
  relative viability: 0.947
HCC-366; first compound 0.3162 µM
  relative viability: 0.741
HCC-366; first compound 1 µM
  relative viability: 0.512
HCC-78; first compound 0.03162 µM
  relative viability: 0.318
HCC-78; first compound 0.1 µM
  relative viability: 0.347
HCC-78; first compound 0.3162 µM
  relative viability: 0.368
HCC-78; first compound 1 µM
  relative viability: 0.299
HOP-62; first compound 0.01 µM
  relative viability: 0.967
HOP-62; first compound 0.03162 µM
  relative viability: 1.14
HOP-62; first compound 0.1 µM
  relative viability: 0.903
HOP-62; first compound 0.3162 µM
  relative viability: 1.08
HOP-62; first compound 1 µM
  relative viability: 1.08
LC-2-ad; first compound 0.01 µM
  relative viability: 0.834
LC-2-ad; first compound 0.03162 µM
  relative viability: 0.503
LC-2-ad; first compound 0.1 µM
  relative viability: 0.49
LC-2-ad; first compound 0.3162 µM
  relative viability: 0.488
LC-2-ad; first compound 1 µM
  relative viability: 0.39
NCI-H1944; first compound 0.01 µM
  relative viability: 1.29
NCI-H1944; first compound 0.03162 µM
  relative viability: 1.14
NCI-H1944; first compound 0.1 µM
  relative viability: 1.12
NCI-H1944; first compound 0.3162 µM
  relative viability: 1.35
NCI-H1944; first compound 1 µM
  relative viability: 1.09
NCI-H1993; first compound 0.01 µM
  relative viability: 0.875
NCI-H1993; first compound 0.03162 µM
  relative viability: 0.974
NCI-H1993; first compound 0.1 µM
  relative viability: 0.875
NCI-H1993; first compound 0.3162 µM
  relative viability: 0.985
NCI-H1993; first compound 1 µM
  relative viability: 0.783
NCI-H2023; first compound 0.01 µM
  relative viability: 0.646
NCI-H2023; first compound 0.03162 µM
  relative viability: 0.627
NCI-H2023; first compound 0.1 µM
  relative viability: 0.639
NCI-H2023; first compound 0.3162 µM
  relative viability: 0.725
NCI-H2023; first compound 1 µM
  relative viability: 0.655
NCI-H2126; first compound 0.01 µM
  relative viability: 1.08
NCI-H2126; first compound 0.03162 µM
  relative viability: 0.992
NCI-H2126; first compound 0.1 µM
  relative viability: 1.06
NCI-H2126; first compound 0.3162 µM
  relative viability: 1.08
NCI-H2126; first compound 1 µM
  relative viability: 1.04
NCI-H2228; first compound 0.01 µM
  relative viability: 0.408
NCI-H2228; first compound 0.03162 µM
  relative viability: 0.564
NCI-H2228; first compound 0.1 µM
  relative viability: 0.348
NCI-H2228; first compound 0.3162 µM
  relative viability: 0.358
NCI-H2228; first compound 1 µM
  relative viability: 0.243
NCI-H23; first compound 0.01 µM
  relative viability: 0.537
NCI-H23; first compound 0.03162 µM
  relative viability: 0.568
NCI-H23; first compound 0.1 µM
  relative viability: 0.496
NCI-H23; first compound 0.3162 µM
  relative viability: 0.536
NCI-H23; first compound 1 µM
  relative viability: 0.511
NCI-H2405; first compound 0.01 µM
  relative viability: 0.834
NCI-H2405; first compound 0.03162 µM
  relative viability: 0.868
NCI-H2405; first compound 0.1 µM
  relative viability: 0.893
NCI-H2405; first compound 0.3162 µM
  relative viability: 0.873
NCI-H2405; first compound 1 µM
  relative viability: 0.8
NCI-H358; first compound 0.01 µM
  relative viability: 0.639
NCI-H358; first compound 0.03162 µM
  relative viability: 0.54
NCI-H358; first compound 0.1 µM
  relative viability: 0.728
NCI-H358; first compound 0.3162 µM
  relative viability: 0.671
NCI-H358; first compound 1 µM
  relative viability: 0.469
NCI-H838; first compound 0.01 µM
  relative viability: 0.919
NCI-H838; first compound 0.03162 µM
  relative viability: 0.84
NCI-H838; first compound 0.1 µM
  relative viability: 0.955
NCI-H838; first compound 0.3162 µM
  relative viability: 0.79
NCI-H838; first compound 1 µM
  relative viability: 0.552
SK-LU-1; first compound 0.01 µM
  relative viability: 0.908
SK-LU-1; first compound 0.03162 µM
  relative viability: 1.02
SK-LU-1; first compound 0.1 µM
  relative viability: 0.901
SK-LU-1; first compound 0.3162 µM
  relative viability: 1
SK-LU-1; first compound 1 µM
  relative viability: 0.641
